Values of other authors as cited in patent publication US8921533B2, “Glycosylated valproic acid analogs and uses thereof” (Chromatin Technologies, priority 2011, dated 2014).
Where two headings read alike, the source gives them in different places.

Tested on: sensitised guinea pig tracheal rings
Conditions: also contraction induced by histamine, 5-hydroxytryptamine and carbachol

Structure (SMILES) | inhibition of antigen-induced contraction of tracheal rings (1 mM) | inhibition of antigen-induced contraction of tracheal rings (100 microM)
CCCC(=O)[O-].[Na+] [sodium butyrate] | weak inhibitors | –
CCCC(CCC)C(=O)[O-].[Na+] [sodium valproate] | – | weak inhibitors
